Laboratory results reported in ChEMBL document CHEMBL2062499, “Synthesis of benzofuran based 1,3,5-substituted pyrazole derivatives: as a new class of potent antioxidants and antimicrobials--a novel accost to amend biocompatibility” (Bioorg Med Chem Lett, 2012).

Experiments:
Aspergillus flavus [1] = assay: Antifungal activity against Aspergillus flavus MTCC 3306 at 0.5 mg/ml after 72 hrs by well plate method; format: functional; conditions: MTCC 3306, 72 h, read-out: DIZ
Candida albicans [2] = assay: Antifungal activity against Candida albicans MTCC 2827 at 1 mg/ml after 72 hrs by well plate method; format: functional; conditions: MTCC 2827, 72 h, read-out: DIZ
Aspergillus flavus [3] = assay: Antifungal activity against Aspergillus flavus MTCC 3306 at 1 mg/ml after 72 hrs by well plate method; format: functional; conditions: MTCC 3306, 72 h, read-out: DIZ
Candida albicans [4] = assay: Antifungal activity against Candida albicans MTCC 2827 at 0.5 mg/ml after 72 hrs by well plate method; format: functional; conditions: MTCC 2827, 72 h, read-out: DIZ
Escherichia coli [5] = assay: Antibacterial activity Escherichia coli ATCC 25922 at 0.5 mg/ml after 24 hrs by well plate method; format: functional; conditions: ATCC 25922, 24 h, read-out: DIZ
[6] = system: Radical scavenging activity; assay: Antioxidant activity assessed as DPPH radical scavenging activity after 20 mins by UV-Vis spectrophotometric analysis; format: functional
Escherichia coli [7] = assay: Antibacterial activity Escherichia coli ATCC 25922 at 1 mg/ml after 24 hrs by well plate method; format: functional; conditions: ATCC 25922, 24 h, read-out: DIZ
[8] = Antifungal activity against Chrysosporium keratinophilum MTCC 3017 at 1 mg/ml after 72 hrs by well plate method; format: functional
Staphylococcus aureus [9] = assay: Antibacterial activity Staphylococcus aureus ATCC 25923 at 1 mg/ml after 24 hrs by well plate method; format: functional; conditions: ATCC 25923, 24 h, read-out: DIZ
Pseudomonas aeruginosa [10] = assay: Antibacterial activity Pseudomonas aeruginosa ATCC 27853 at 1 mg/ml after 24 hrs by well plate method; format: functional; conditions: ATCC 27853, 24 h, read-out: DIZ
Staphylococcus aureus [11] = assay: Antibacterial activity Staphylococcus aureus ATCC 25923 at 0.5 mg/ml after 24 hrs by well plate method; format: functional; conditions: ATCC 25923, 24 h, read-out: DIZ
Pseudomonas aeruginosa [12] = assay: Antibacterial activity Pseudomonas aeruginosa ATCC 27853 at 0.5 mg/ml after 24 hrs by well plate method; format: functional; conditions: ATCC 27853, 24 h, read-out: DIZ
[13] = Antifungal activity against Chrysosporium keratinophilum MTCC 3017 at 0.5 mg/ml after 72 hrs by well plate method; format: functional
Liver microsomes = assay: Antioxidant activity in Wistar rat liver microsomes assessed as inhibition of microsomal lipid peroxidation after 15 mins by MDA-TBA assay; format: functional, Microsome

SMILES	zone of inhibition at 500 µg/mL (Aspergillus flavus [1]) [mm]	zone of inhibition at 1000 µg/mL (Candida albicans [2]) [mm]	zone of inhibition at 1000 µg/mL (Aspergillus flavus [3]) [mm]	zone of inhibition at 500 µg/mL (Candida albicans [4]) [mm]	zone of inhibition at 500 µg/mL (Escherichia coli [5]) [mm]	IC50 [6] [uM/ml]	zone of inhibition at 1000 µg/mL (Escherichia coli [7]) [mm]	inhibition zone (IZ) [8] [mm]	zone of inhibition at 1000 µg/mL (Staphylococcus aureus [9]) [mm]	zone of inhibition at 1000 µg/mL (Pseudomonas aeruginosa [10]) [mm]	zone of inhibition at 500 µg/mL (Staphylococcus aureus [11]) [mm]	zone of inhibition at 500 µg/mL (Pseudomonas aeruginosa [12]) [mm]	inhibition zone (IZ) [13] [mm]	IC50 (Liver microsomes) [uM/ml]
COc1cc(C2CC(c3cc4ccccc4o3)=NN2C(=O)Nc2ccc(O)c(O)c2)ccc1O (centres undefined)	2	2	3	1	1	9.5	2	2	2	5	1	3	1	11
COc1cc(C2CC(c3cc4ccccc4o3)=NN2)ccc1O (centres undefined)	0	1	0	1	0	100	0	1	0	0	0	0	0	112
COc1cc(NC(=O)N2N=C(c3cc4ccccc4o3)CC2c2ccc(O)c(OC)c2)ccc1O (centres undefined)	1	2	2	1	1	10	2	3	3	2	2	1	2	12
COc1cc(C2CC(c3cc4ccccc4o3)=NN2C(=O)Nc2ccc(O)cc2)ccc1O (centres undefined)	2	4	3	2	2	17	3	2	2	3	1	2	1	15
COc1cc(C2CC(c3cc4ccccc4o3)=NN2C(=O)Nc2ccc(Br)cc2)ccc1O (centres undefined)	4	19	6	15	10	105	16	10	8	10	6	7	9	115
OC(Cn1cncn1)(Cn1cncn1)c1ccc(F)cc1F [FLUCONAZOLE]	10	22	13	20				17					15	
COc1cc(C2CC(c3cc4ccccc4o3)=NN2C(=O)Nc2ccc([N+](=O)[O-])cc2)ccc1O (centres undefined)	3	5	5	4	9	103	15	4	8	9	6	7	3	113
COc1cc(C2CC(c3cc4ccccc4o3)=NN2C(=O)Nc2ccc(F)cc2)ccc1O (centres undefined)	9	24	11	21	12	110	18	15	16	19	14	16	11	125
